Results taken from PubChem BioAssay AID248 (DTP/NCI, 2004).
Several values for one entry are separate records, joined by “and”; a condition that tells them apart may be missing. Equal entries are not always repeated. Toxic doses and inconclusive results are not listed. Rule as the data show it: active = T/C of 150% or more; inactive = T/C below 125%.

Test system: L1210 leukemia ip in BDF1 mice, survival T/C
Experiment: NCI In Vivo Anticancer Drug Screen. Data for tumor model L1210 Leukemia (intraperitoneal) in B6D2F1 (BDF1) mice
Conditions: endpoint: mean survival time, higher = longer survival
Summary of the method: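 In this screen, tumor-bearing mice given compound are compared to those given vehicle, and their survival values are reported as a treated-to-control quotient.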

[1] = dose: 100.0 mg/kg/injection, schedule: Q01DX009 (ip), vehicle: saline with Tween-80
[2] = dose: 100.0 mg/kg/injection, schedule: Q01DX009 (ip), vehicle: saline
[3] = dose: 200.0 mg/kg/injection, schedule: Q01DX009 (ip), vehicle: saline
[4] = dose: 400.0 mg/kg/injection, schedule: Q01DX009 (ip), vehicle: saline
[5] = dose: 100.0 mg/kg/injection, schedule: Q04DX002 (ip), vehicle: Klucel (hydroxypropylcellulose) (HPC)
[6] = dose: 200.0 mg/kg/injection, schedule: Q04DX002 (ip), vehicle: Klucel (hydroxypropylcellulose) (HPC)
[7] = dose: 400.0 mg/kg/injection, schedule: Q04DX002 (ip), vehicle: Klucel (hydroxypropylcellulose) (HPC)
[8] = dose: 100.0 mg/kg/injection, schedule: Q01DX009 (ip), vehicle: Klucel (hydroxypropylcellulose) (HPC)
[9] = dose: 200.0 mg/kg/injection, schedule: Q01DX009 (ip), vehicle: Klucel (hydroxypropylcellulose) (HPC)

Measured: T/C

CC1CCCCC1O (centres undefined)
inactive: [1] 102 % of control | dose: 200.0 mg/kg/injection, schedule: Q01DX009 (ip), vehicle: saline with Tween-80 92 % of control

CCNC(C)CC(C)C (centres undefined)
inactive: dose: 25.0 mg/kg/injection, schedule: Q01DX009 (ip), vehicle: saline with Tween-80 101 % of control | dose: 25.0 mg/kg/injection, schedule: Q04DX003 (ip), vehicle: saline with Tween-80 95 % of control | dose: 50.0 mg/kg/injection, schedule: Q01DX009 (ip), vehicle: saline with Tween-80 92 % of control | dose: 50.0 mg/kg/injection, schedule: Q04DX003 (ip), vehicle: saline with Tween-80 92 % of control | [1] 98 % of control | dose: 100.0 mg/kg/injection, schedule: Q04DX003 (ip), vehicle: saline with Tween-80 93 % of control and 96 % of control

CCCCC(/C=N\NC(=O)c1ccc[n+](C)c1)=C/c1ccccc1
inactive: dose: 100.0 mg/kg/injection, schedule: Q01DX001 (ip), vehicle: saline with Tween-80 96 % of control | dose: 200.0 mg/kg/injection, schedule: Q01DX001 (ip), vehicle: saline with Tween-80 102 % of control

O=[N+]([O-])c1ccc(N/N=C\c2ccc3ccccc3n2)cc1
inactive: [2] 97 % of control | [3] 104 % of control | [4] 91 % of control

Oc1ccc(Cl)cc1C1N(Cc2ccc(N(CCCl)CCCl)cc2Cl)CCCN1Cc1ccc(N(CCCl)CCCl)cc1Cl
inactive: dose: 50.0 mg/kg/injection, schedule: Q01DX001 (ip), vehicle: carboxymethylcellulose (CMC) 113 % of control | dose: 100.0 mg/kg/injection, schedule: Q01DX001 (ip), vehicle: carboxymethylcellulose (CMC) 96 % of control | dose: 200.0 mg/kg/injection, schedule: Q01DX001 (ip), vehicle: carboxymethylcellulose (CMC) 105 % of control | dose: 400.0 mg/kg/injection, schedule: Q01DX001 (ip), vehicle: carboxymethylcellulose (CMC) 96 % of control

O=S1(=O)CC(Cl)(Br)C1 (tested in a mixture with another compound)
inactive: [5] 94 % of control | [6] 97 % of control | [7] 89 % of control

O=C(COc1cc(Cl)c(Cl)cc1Cl)NCCO
inactive: [5] 92 % of control | [6] 110 % of control | [7] 108 % of control

Cc1cccc(Cl)c1OCC(O)COc1c(C)cccc1Cl
inactive: dose: 100.0 mg/kg/injection, schedule: Q04DX002 (ip), vehicle: saline with Tween-80 92 % of control | dose: 200.0 mg/kg/injection, schedule: Q04DX002 (ip), vehicle: saline with Tween-80 95 % of control | dose: 400.0 mg/kg/injection, schedule: Q04DX002 (ip), vehicle: saline with Tween-80 95 % of control

N#CC(CCCc1ccccc1)c1ccc(N)cc1 (centres undefined)
inactive: dose: 100.0 mg/kg/injection, schedule: Q01DX001 (ip), vehicle: Klucel (hydroxypropylcellulose) (HPC) 91 % of control | dose: 200.0 mg/kg/injection, schedule: Q01DX001 (ip), vehicle: Klucel (hydroxypropylcellulose) (HPC) 94 % of control | dose: 400.0 mg/kg/injection, schedule: Q01DX001 (ip), vehicle: Klucel (hydroxypropylcellulose) (HPC) 103 % of control

O=[N+]([O-])c1cc(C=Nc2ccccc2)ccc1Cl
inactive: [2] 97 % of control | dose: 100.0 mg/kg/injection, schedule: Q04DX003 (ip), vehicle: Klucel (hydroxypropylcellulose) (HPC) 94 % of control | [3] 108 % of control | dose: 200.0 mg/kg/injection, schedule: Q04DX003 (ip), vehicle: Klucel (hydroxypropylcellulose) (HPC) 100 % of control | [4] 103 % of control | dose: 400.0 mg/kg/injection, schedule: Q04DX003 (ip), vehicle: Klucel (hydroxypropylcellulose) (HPC) 97 % of control

CCCOCC(O)CNCCN (centres undefined)
inactive: [8] 98 % of control | [9] 92 % of control

O=C1OC(c2ccc([N+](=O)[O-])cc2)=N/C1=C\c1ccc(O)cc1
inactive: [8] 96 % of control | [9] 96 % of control | dose: 400.0 mg/kg/injection, schedule: Q01DX009 (ip), vehicle: Klucel (hydroxypropylcellulose) (HPC) 90 % of control

NC(=O)NN=C1CCCCC1
inactive: dose: 12.5 mg/kg/injection, schedule: Q01DX009 (ip), vehicle: Klucel (hydroxypropylcellulose) (HPC) 97 % of control | dose: 25.0 mg/kg/injection, schedule: Q01DX009 (ip), vehicle: Klucel (hydroxypropylcellulose) (HPC) 97 % of control | dose: 50.0 mg/kg/injection, schedule: Q01DX009 (ip), vehicle: Klucel (hydroxypropylcellulose) (HPC) 102 % of control | dose: 70.0 mg/kg/injection, schedule: Q01DX009 (ip), vehicle: Klucel (hydroxypropylcellulose) (HPC) 87 % of control
